This experiment concerns the target T1, carbonyl reductase 1 (CBR1) (Homo sapiens, UniProt P16152).
T1 construct: human recombinant CBR1 expressed in Escherichia coli Rosetta (DE3)
T1 sequence (P16152 2-277): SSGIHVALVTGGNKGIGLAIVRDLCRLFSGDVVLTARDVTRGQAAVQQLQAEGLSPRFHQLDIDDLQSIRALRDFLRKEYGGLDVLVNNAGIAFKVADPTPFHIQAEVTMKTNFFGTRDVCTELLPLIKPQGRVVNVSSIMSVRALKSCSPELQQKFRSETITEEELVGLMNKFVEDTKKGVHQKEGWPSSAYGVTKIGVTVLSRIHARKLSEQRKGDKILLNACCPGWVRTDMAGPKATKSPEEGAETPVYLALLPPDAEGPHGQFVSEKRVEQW
As to the kind of experiment: recombinant CBR1 inhibition, menadione substrate, NADPH oxidation monitored at […] nm. Type of experiment: biochemical.

In general, IC50 refers to the concentration at which inhibition is half-maximal. `COc1ccc2[nH]c(C(=O)N3CCC(CC(C)(C)O)CC3)cc2c1` [ASP9521]: the IC50 worked out at 44 µM.

The record behind these values is article PMC10180078, “In Silico and In Vitro Assessment of Carbonyl Reductase 1 Inhibition Using ASP9521—A Potent Aldo-Keto Reductase 1C3 Inhibitor with the Potential to Support Anticancer Therapy Using Anthracycline Antibiotics” (Molecules, 2023).
